# According to PMC3298571 (Bioorganic & medicinal chemistry, 2012):
# “Also recorded” adds a separate entry of the source. Marks after values point to notes of the source that are not given here.
# How the values were obtained:
# CB2 receptor = settings: read-out: Ki CB2; cited from earlier work
# Male ICR mice [1] = settings: mouse; cited from earlier work
# Male ICR mice [2] = settings: mouse; cited from earlier work; remark: listed apart in the source
# CB1 receptor [3] = settings: read-out: Ki CB1; cited from earlier work
# Male ICR mice [4] = settings: mouse; cited from earlier work; remark: listed apart in the source
# mice [5] = settings: cited from earlier work
# CB1 receptors = settings: [35S]GTPγS binding assay; cited from earlier work
# mice [6] = settings: cited from earlier work; remark: listed apart in the source
# mice [7] = assay: Rimonabant antagonism of tetrad effects in mice; format: in vivo, mouse; settings: 3 mg/kg rimonabant, 30 mg/kg JWH-415
# CB1 receptor [8] = target: CB1 receptor (Homo sapiens, UniProt P21554); assay: [35S]GTPγS binding assay; format: biochemical
# Male ICR mice [9] = settings: mouse; cited from earlier work; remark: listed apart in the source
# CB1 receptor (Homo sapiens, UniProt P21554), sequence (P21554 whole entry): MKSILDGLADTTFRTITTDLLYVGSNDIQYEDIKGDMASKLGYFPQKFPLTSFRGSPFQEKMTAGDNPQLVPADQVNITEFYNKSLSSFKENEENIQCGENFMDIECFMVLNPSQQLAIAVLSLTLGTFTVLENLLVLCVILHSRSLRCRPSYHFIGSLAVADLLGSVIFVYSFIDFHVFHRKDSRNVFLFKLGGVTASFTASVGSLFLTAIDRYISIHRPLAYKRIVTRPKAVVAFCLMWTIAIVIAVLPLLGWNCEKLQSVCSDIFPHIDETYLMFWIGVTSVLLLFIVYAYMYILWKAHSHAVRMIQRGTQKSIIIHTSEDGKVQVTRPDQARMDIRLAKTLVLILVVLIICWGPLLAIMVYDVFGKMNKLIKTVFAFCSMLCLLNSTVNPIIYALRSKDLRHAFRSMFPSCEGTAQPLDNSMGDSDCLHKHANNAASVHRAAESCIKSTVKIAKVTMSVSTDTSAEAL
SMILES,Ki (CB2 receptor) [nM],ED50 RT (Male ICR mice [1]),ED50 TF (Male ICR mice [2]),Ki (CB1 receptor [3]) [nM],ED50 SA (Male ICR mice [4]),further results
"CCCCCn1cc(C(=O)c2cccc3ccccc23)c2ccccc21 [JWH-018, 1-pentyl-3-(1-naphthoyl)indole]",2.9 ± 2.6,1.7^e μmol / kg,0.09^e μmol / kg,9 ± 5,0.44^e μmol / kg,
CCCCCn1c(C)c(C(=O)c2ccc(CC)c3ccccc23)c2ccccc21 [JWH-213],0.42 ± 0.05,,,1.5 ± 0.2,,
"C=C1CC[C@@H]2[C@@H](C1)c1ccc(C(C)(C)CCCCCC)cc1OC2(C)C [JWH-104, deoxy-Δ^9(11)-THC-dimethylheptyl]",,,,909,,Substitution for THC in drug discrimination (mice [5]): did not substitute for THC; Efficacy at CB1 receptors (CB1 receptors): low efficacy agonist; Effect of rimonabant on cannabimimetic effects in the battery of mouse tests (mice [6]): blocked by rimonabant
"CCCn1c(C)c(C(=O)c2ccc(F)c3ccccc23)c2ccccc21 [JWH-415, 2-Methyl-1-propyl-3-(4-fluoro-1-naphthoyl)indole]",,,,,,Effect of rimonabant on tetrad effects (mice [7]): blocked or partially blocked; also recorded: rimonabant-reversible activity; Efficacy at the CB1 receptor (CB1 receptor [8]): low efficacy agonist
"CCCn1c(C)c(C(=O)c2cccc3ccccc23)c2ccccc21 [JWH-015, 1-propyl-2-methyl-3-(1-naphthoyl)indole]",,99.1^e μmol / kg,84.7^e μmol / kg,,18.7^e μmol / kg,ED50 RI (Male ICR mice [9]): 87.2^e μmol / kg
"Cc1c(C(=O)c2cccc3ccccc23)c2cccc3c2n1[C@H](CN1CCOCC1)CO3 [WIN-55,212-2]",,,0.94^c μmol / kg,,0.23^c μmol / kg,
